What was measured:
[1] = solvent H2O; stirred strongly 30 seconds in each 5 minutes, observed within 30 minutes
Source text: Each compound prepared above was weighted and added to solvents with different volume capacity.

[2] = SD rats drug absorption test
Experimental: The intravenous blood was collected from venous plexus behind eyeballs of rats at different time before and after administration, and the blood plasma is prepared by separated.
Blood samples are collected from an orbit at different time after the administration.

CCCCc1nc(Cl)c(C(=O)OCOC(=O)OC(C)C)n1Cc1ccc(-c2ccccc2-c2nnn[nH]2)cc1 [Compound 1, 2-butyl-4-chloro-1-[2′-(1H-tetrazol-5-yl)1,1′-biphenyl-methyl]imidazole-5-carboxylic acid, 1-[(isopropoxycarbonyl)oxy]methyl ester]
Solubility (in H2O) [1]: Slightly soluble (1 g of compound can be dissolved in 100 ml˜1000 ml solvent) | Bioavailability ([2]; intragastric infusion versus EXP3174 intravenous 7.9 mg/kg, based on plasma EXP3174, 7.9 mg/kg): 4.11% | Tmax ([2]; intragastric infusion, same dosage as EXP3174 (7.9 mg/kg), active metabolite EXP3174 measured in blood plasma by LC-MS/MS): 2 h

Reference: US7943648B2, “Salts of imidazole-5-carboxylic acid derivatives, a method for preparing same and pharmaceutical compositions comprising same” (Shanghai Allist Pharmaceutical Inc., priority 2006, dated 2011)
